Experimental data as given in article PMC6337383, “Discovery of Potent Inhibitors for the Large Neutral Amino Acid Transporter 1 (LAT1) by Structure-Based Methods” (International Journal of Molecular Sciences, 2018).
Entries after “also recorded” stand apart in the source; their conditions may differ.

Columns and labels:
recombinant human LAT1 = biological target: T1, recombinant human LAT1 (Homo sapiens, UniProt Q01650); assay: Inhibition of LAT1 mediated [3H]-His transport in proteoliposomes reconstituted with recombinant purified human LAT1; format: biochemical; details: for % Residual Activity: 100 µM concentration, n = 3, Table S6; for LAT1 inhibition, activity in words: 100 μM compound, [3H]-His uptake in proteoliposomes
T1 construct: made in house; host or cells: E. coli
T1 sequence (Q01650 whole entry): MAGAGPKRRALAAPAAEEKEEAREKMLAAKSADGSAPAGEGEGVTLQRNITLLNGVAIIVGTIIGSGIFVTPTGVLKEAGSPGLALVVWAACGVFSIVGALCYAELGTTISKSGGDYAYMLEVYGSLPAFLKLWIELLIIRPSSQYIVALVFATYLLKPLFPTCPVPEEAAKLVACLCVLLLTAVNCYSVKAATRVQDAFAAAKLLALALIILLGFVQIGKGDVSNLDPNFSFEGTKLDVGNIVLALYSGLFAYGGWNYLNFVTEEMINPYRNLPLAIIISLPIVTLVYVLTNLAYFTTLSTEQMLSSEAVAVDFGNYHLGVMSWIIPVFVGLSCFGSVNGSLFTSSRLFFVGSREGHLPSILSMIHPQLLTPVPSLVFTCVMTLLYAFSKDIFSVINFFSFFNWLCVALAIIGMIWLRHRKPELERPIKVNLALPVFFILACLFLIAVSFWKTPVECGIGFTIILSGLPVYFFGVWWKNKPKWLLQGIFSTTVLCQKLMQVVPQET
Description: All 30 compounds were evaluated for their potency to inhibit LAT1 mediated histidine transport in proteoliposomes reconstituted with recombinant purified human LAT1 (see Methods). […]
Human LAT1 was over-expressed in E. coli and was purified as previously described. In brief, solubilized cell lysate was centrifuged (12,000× g, 10 min, 4 °C); supernatant was applied on a His-Trap HP column (5 mL Ni Sepharose) connected to ÄKTA start system. The column was equilibrated with 10 mL buffer (20 mM Tris HCl pH 8.0, 10% glycerol, 200 mM NaCl, 0.1% sarkosyl) prior to supernatant application. The column was washed with 10 mL buffer (20 mM Tris HCl pH 8.0, 10% glycerol, 200 mM NaCl, 0.05% DDM, and 2 mM DTE) and the protein was eluted with the same buffer plus 400 mM imidazole. Purified protein was desalted, in order to remove imidazole, using a PD-10 column in a buffer containing 20 mM Tris HCl pH 8.0, 10% glycerol, 0.05% DDM and 10 mM DTE.
The purified human LAT1 was reconstituted by detergent removal approach using the batch-wise method, as previously described. In brief, the initial mixture contained: 4 μg of purified protein, 100 μL of 10% C12E8, 100 μL of 10% egg yolk phospholipids (w/v) in the form of liposomes that were prepared as previously described, 20 mM Tris HCl pH 7.5, and 10 mM L-His in a final volume of 700 μL. This mixture was incubated with 0.5 g of Amberlite XAD-4 for 90 min at 23 °C, 1200 rpm to retain detergent.
To perform transport assays, the external substrate was removed by gel filtration chromatography: 600 μL of proteoliposomes were passed through a Sephadex G-75 column (0.7 cm diameter × 15 cm height) pre-equilibrated with 20 mM Tris HCl pH 7.5 and a concentration of sucrose to balance internal osmolarity. Transport was started adding 5 μM [^3H]-His to proteoliposomes and stopped after 30 min according to the stop inhibitor method, as previously described. In brief, in controls 1.5 µM HgCl2 was added at time zero and radioactivity was subtracted to samples for calculating net transport. After stopping the transport reaction, 100 μL of proteoliposomes was subjected to gel filtration chromatography using a Sephadex G-75 column (0.6 cm diameter × 8 cm height), to separate the external from the internal radioactivity. Proteoliposomes were eluted with 1 mL 50 mM NaCl in 4 mL scintillation mixture and counted. […] Protein concentration was estimated by Chemidoc imaging system1 [104] to calculate the human LAT1 specific activity.

LAT1 = details: experimental value, compared with MM-PBSA prediction

Row | SMILES | % Residual Activity (recombinant human LAT1) [%] | also measured
1 | CN1CCCC(n2nc(Cc3ccc(Cl)cc3)c3ccccc3c2=O)CC1 (stereo not shown) [Compound 30] | 94.08 | –
2 | Cc1cc(OC(C)(C)C(=O)NCc2n[nH]c(=O)[nH]2)cc(C)c1Cl [Compound 20] | 90.07 | –
3 | O=C(O)[C@@H]1C[C@H](n2cc(-c3ccccn3)nn2)CN1 [Compound 25] | 94.12 | –
4 | NC1(C(=O)O)CCCC1Cc1ccc(Cl)cc1 (stereo not shown) [Compound 32] | 53.11 | LAT1 inhibition, activity in words (recombinant human LAT1): moderately active; also recorded: modest affinity
5 | N[C@@H](Cc1cn(Cc2ccccc2)cn1)C(=O)O [Compound 40] | 11.34 | inhibition at 100 µM (recombinant human LAT1; 100 µM compound): 80 to 90%
6 | NC1(C(=O)O)CCc2ccccc2C1 (stereo not shown) [Compound 8, 2-Amino-1,2,3,4-tetrahydro-2-naphthoic acid] | – | times more potent than 10 (LAT1): 9
7 | N#Cc1c(-c2ccccc2-c2ccco2)cc(-c2cc(C(=O)O)[nH]n2)nc1N [Compound 13] | 74.23 | –
8 | CCOc1ccc(Cl)cc1C(C(=O)O)N(C)Cc1cnccn1 (stereo not shown) [Compound 24] | 100.72 | –

The next lines start with results.

Row | % Residual Activity (recombinant human LAT1) [%] | SMILES | also measured
9 | 95.1 | CCn1cnnc1C(C)NC(=O)c1ccc2[nH]c(=O)c(=O)[nH]c2c1 (stereo not shown) [Compound 16] | –
10 | 96.22 | CN(Cc1ccon1)C(C(=O)O)c1ccc(-n2cccn2)cc1 (stereo not shown) [Compound 23] | –
11 | 93.36 | O=C(c1ccc2[nH]c(CO)nc2c1)N(Cc1ccco1)Cc1cccs1 [Compound 22] | –
12 | 95.87 | Cc1nnc(-c2ccccc2-c2ccc(CNS(C)(=O)=O)cc2)o1 [Compound 14] | –
13 | 90.14 | CCOc1ccc(Cl)cc1-c1cccc(OCC(N)=O)c1 [Compound 18] | –
14 | 65.31 | N[C@@H](Cc1ccc2ccccc2n1)C(=O)O [Compound 37] | LAT1 inhibition, activity in words (recombinant human LAT1): slightly active
15 | 93.06 | CCOc1ccccc1CN(Cc1cc(O)c(OC)cn1)C1CC1 [Compound 19] | –
16 | 98.42 | CN(Cc1cc(Br)cc(Br)c1N)C1CCCCC1 [Compound 29] | –
